Data as given in ChEMBL document CHEMBL1944520, “Discovery of 3-aryloxy-lactam analogs as potent androgen receptor full antagonists for treating castration resistant prostate cancer” (Bioorg Med Chem Lett, 2012).
Converted amounts (≈) assume the structure as drawn.

Assays:
[1] = target: T1, Androgen receptor (Homo sapiens) (UniProt P10275); experiment: Agonist activity at androgen receptor expressed in human LNAR cells as induction of luciferase activity by spectrophotometry relative to untreated control; type: functional, cell-based
T1 sequence (whole entry): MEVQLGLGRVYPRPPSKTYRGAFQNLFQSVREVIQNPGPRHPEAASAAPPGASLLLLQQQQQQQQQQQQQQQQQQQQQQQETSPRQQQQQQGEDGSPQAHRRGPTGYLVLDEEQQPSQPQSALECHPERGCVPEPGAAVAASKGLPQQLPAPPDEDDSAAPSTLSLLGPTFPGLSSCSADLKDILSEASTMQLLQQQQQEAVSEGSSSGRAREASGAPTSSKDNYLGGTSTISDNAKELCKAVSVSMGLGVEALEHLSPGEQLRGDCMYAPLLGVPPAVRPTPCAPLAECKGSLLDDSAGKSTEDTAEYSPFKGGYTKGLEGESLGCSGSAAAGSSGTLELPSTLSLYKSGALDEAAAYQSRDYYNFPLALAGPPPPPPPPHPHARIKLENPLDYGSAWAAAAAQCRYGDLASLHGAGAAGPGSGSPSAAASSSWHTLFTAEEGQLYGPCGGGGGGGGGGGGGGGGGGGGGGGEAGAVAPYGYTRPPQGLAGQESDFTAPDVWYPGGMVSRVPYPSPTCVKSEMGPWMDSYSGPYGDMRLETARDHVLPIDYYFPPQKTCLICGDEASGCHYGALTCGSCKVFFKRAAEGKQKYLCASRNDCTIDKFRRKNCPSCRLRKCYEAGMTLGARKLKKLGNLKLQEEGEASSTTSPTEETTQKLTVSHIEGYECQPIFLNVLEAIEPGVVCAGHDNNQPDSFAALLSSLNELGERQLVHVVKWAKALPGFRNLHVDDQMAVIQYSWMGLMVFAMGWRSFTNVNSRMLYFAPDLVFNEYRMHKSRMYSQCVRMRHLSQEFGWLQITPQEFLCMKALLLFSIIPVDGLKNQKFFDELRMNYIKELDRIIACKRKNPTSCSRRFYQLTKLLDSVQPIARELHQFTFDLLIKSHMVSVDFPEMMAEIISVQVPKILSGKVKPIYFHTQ

[2] = target: T1, Androgen receptor (Homo sapiens); experiment: Antagonist activity at androgen receptor expressed in human LNAR cells assessed as inhibition of R1881-induced luciferase activity at 1 uM by spectrophotometry; type: functional, cell-based
Androgen receptor = target: T2, Androgen receptor (Homo sapiens, UniProt P10275); experiment: Antagonist activity at androgen receptor expressed in human LNAR cells assessed as inhibition of R1881-induced luciferase activity by spectrophotometry; type: functional, cell-based
T2 sequence (P10275 whole entry): T1 sequence (whole entry)

[3] = Fraction unbound in human; type: ADME, organism-based; conditions: in vivo
[4] = Oral bioavailability in rat; type: ADME, organism-based; conditions: in vivo
[5] = Solubility of the compound at pH 7.4; type: physicochemical; conditions: buffer
Liver microsomes = experiment: Unbound intrinsic clearance in human liver microsomes; type: ADME, Microsome
Rattus norvegicus = experiment: Unbound plasma clearance in iv dosed rat; type: ADME, organism-based; conditions: in vivo
[6] = target: T1, Androgen receptor (Homo sapiens); experiment: Antagonist activity at androgen receptor expressed in human LNAR cells assessed as inhibition of R1881-induced luciferase activity at 0.1 uM by spectrophotometry; type: functional, cell-based

Row | inhibition [2] [%] | Compound | fold change (FC) [1] | IC50 (Androgen receptor) [nM] | other results
1 | 10 | CC1(C)CN(CCC#N)C(=O)[C@@H]1Oc1ccc(C#N)cc1 | 0.95 | – | –
2 | 29 | CC(C)(O)CN1CC(C)(C)[C@@H](Oc2ccc(C#N)c(C(F)(F)F)c2)C1=O | 0.9 | – | –
3 | – | CC1(C)CN(CCO)C(=O)[C@@H]1Oc1ccc(C#N)c(C(F)(F)F)c1 | 1.03 | 263 | –
4 | – | CC(CO)N1CC(C)(C)[C@@H](Oc2ccc(C#N)c(C(F)(F)F)c2)C1=O (stereo in doubt; 14) [listing 1 of 2 here] | – | 371 | –
5 | 23 | CNC(=O)CN1CC(C)(C)C(Oc2ccc(C#N)c(C(F)(F)F)c2)C1=O (racemic) | 0.85 | – | –
6 | 17 | CC(O)(CO)CN1CC(C)(C)[C@@H](Oc2ccc(C#N)c(C(F)(F)F)c2)C1=O (stereo in doubt; 24) | 1.01 | – | –
7 | – | CC(O)CN1CC(C)(C)[C@@H](Oc2ccc(C#N)c(C(F)(F)F)c2)C1=O (single isomer, unassigned) [listing 1 of 2 here] | – | 977 | –
8 | – | CC1(C)CN(Cc2nnc(-c3ccccc3)o2)C(=O)[C@@H]1Oc1ccc(C#N)c(C(F)(F)F)c1 | 0.95 | 71 | fraction unbound [3]: 0.0127; bioavailability [4]: 10%; solubility [5]: 5.9 µg/mL (≈ 12.9 µM); CL free (Liver microsomes): 19.3 µL/min/mg; CL free (Rattus norvegicus): 921 mL/min/kg
9 | – | CC(CO)CN1CC(C)(C)[C@@H](Oc2ccc(C#N)c(C(F)(F)F)c2)C1=O (stereo in doubt; 23) [listing 1 of 2 here] | – | 371 | –
10 | 27 | CC(O)(CO)CN1CC(C)(C)[C@@H](Oc2ccc(C#N)c(C(F)(F)F)c2)C1=O (stereo in doubt; 25) | 0.92 | – | –
11 | – | CC1(C)CN(C(C)(C)CO)C(=O)[C@@H]1Oc1ccc(C#N)c(C(F)(F)F)c1 | 0.91 | 761 | –
12 | – | CC(=O)CN1CC(C)(C)[C@@H](Oc2ccc(C#N)c(C(F)(F)F)c2)C1=O | 0.91 | 266 | –
13 | – | CC(CO)N1CC(C)(C)[C@@H](Oc2ccc(C#N)c(C(F)(F)F)c2)C1=O (stereo in doubt; 15) [listing 1 of 2 here] | 1.02 | – | –
14 | – | CC(O)CN1CC(C)(C)[C@@H](Oc2ccc(C#N)c(C(F)(F)F)c2)C1=O (single isomer, unassigned) [listing 2 of 2 here] | 0.97 | – | –
15 | – | CC(O)CN1CC(C)(C)[C@@H](Oc2ccc(C#N)c(C(F)(F)F)c2)C1=O (stereo in doubt; 18) [listing 1 of 2 here] | – | 216 | –
16 | – | CC1(C)CN(CCC#N)C(=O)[C@@H]1Oc1ccc(C#N)c(C(F)(F)F)c1 | 0.89 | 131 | fraction unbound [3]: 0.226; bioavailability [4]: 64%; solubility [5]: 57 µg/mL (≈ 162 µM); CL free (Liver microsomes): 19.1 µL/min/mg; CL free (Rattus norvegicus): 170 mL/min/kg
17 | 47 | CC1(C)CN(CCC#N)C(=O)[C@@H]1Oc1cc(C(F)(F)F)c(C#N)cn1 | 1.16 | – | –
18 | – | Cc1nnc(CN2CC(C)(C)[C@@H](Oc3ccc(C#N)c(C(F)(F)F)c3)C2=O)o1 | 0.97 | 633 | solubility [5]: 217 µg/mL (≈ 550 µM)
19 | 52 | CC1(C)CN(CCC#N)C(=O)[C@@H]1Oc1cnc(C#N)c(C(F)(F)F)c1 | 0.89 | – | –
20 | – | CC(CO)N1CC(C)(C)[C@@H](Oc2ccc(C#N)c(C(F)(F)F)c2)C1=O (stereo in doubt; 15) [listing 2 of 2 here] | – | 337 | –
21 | – | CC(c1nnc(-c2cccc(F)c2)o1)N1CC(C)(C)C(Oc2ccc(C#N)c(C(F)(F)F)c2)C1=O (racemic) | 1.43 | 77 | fraction unbound [3]: 0.00825; bioavailability [4]: 10%; solubility [5]: 3.8 µg/mL (≈ 7.78 µM); CL free (Liver microsomes): 115 µL/min/mg; CL free (Rattus norvegicus): 1585 mL/min/kg
22 | – | CC(CO)CN1CC(C)(C)[C@@H](Oc2ccc(C#N)c(C(F)(F)F)c2)C1=O (stereo in doubt; 23) [listing 2 of 2 here] | 0.95 | – | –
23 | – | COC(=O)CN1CC(C)(C)C(Oc2ccc(C#N)c(C(F)(F)F)c2)C1=O (racemic) | 1.05 | 303 | –
24 | – | CC1(C)CNC(=O)[C@@H]1Oc1ccc(C#N)c(C(F)(F)F)c1 | 1.31 | 105 | –
25 | – | CC(O)CN1CC(C)(C)[C@@H](Oc2ccc(C#N)c(C(F)(F)F)c2)C1=O (stereo in doubt; 18) [listing 2 of 2 here] | 0.99 | – | –
26 | – | CC1(C)CN(CCC#N)C(=O)[C@@H]1Oc1ccc(C#N)c(Cl)c1 | 0.99 | 68 | solubility [5]: 159 µg/mL (≈ 500 µM)
27 | – | C[C@@H](c1nnc(-c2ccccc2)o1)N1CC(C)(C)[C@@H](Oc2ccc(C#N)c(C(F)(F)F)c2)C1=O | 3.09 | – | fraction unbound [3]: 0.0181; bioavailability [4]: 25%; inhibition [6]: 62%; solubility [5]: 3.7 µg/mL (≈ 7.86 µM); CL free (Liver microsomes): 43.87 µL/min/mg; CL free (Rattus norvegicus): 4294 mL/min/kg
28 | – | CC(CO)N1CC(C)(C)[C@@H](Oc2ccc(C#N)c(C(F)(F)F)c2)C1=O (stereo in doubt; 14) [listing 2 of 2 here] | 1.06 | – | –

Row | Compound | inhibition [2] [%] | fold change (FC) [1] | IC50 (Androgen receptor) [nM] | other results
29 | CC1(C)CN(CCCO)C(=O)[C@@H]1Oc1ccc(C#N)c(C(F)(F)F)c1 | 87 | 1.11 | – | –
30 | CCCN1CC(C)(C)[C@@H](Oc2ccc(C#N)c(C(F)(F)F)c2)C1=O | 88 | 1.45 | – | –
31 | CC1(C)CN(CC#N)C(=O)[C@@H]1Oc1ccc(C#N)c(C(F)(F)F)c1 | 89 | 2.75 | – | –
32 | CC(CO)CN1CC(C)(C)[C@@H](Oc2ccc(C#N)c(C(F)(F)F)c2)C1=O (stereo in doubt; 22) | 96 | 1.01 | – | –
33 | CCCCN1CC(C)(C)[C@@H](Oc2ccc(C#N)c(C(F)(F)F)c2)C1=O | 85 | 2.12 | – | –
